In patent publication EP4663640A1 (Shanghai Institute of Materia Medica, Chinese Academy of …, priority 2023, dated 2024):

Legend:
hTRPC5 [1] = target: T1, hTRPC5 (Homo sapiens, UniProt Q9UL62); assay: TRPC5 agonist activity assay (FLIPR calcium fluorescence); type: cell-based; settings: Table 2, agonist activity on TRPC5 channels
T1 construct: expressed in transfected cells; host or cells: HEK-293
T1 sequence (Q9UL62 1-973): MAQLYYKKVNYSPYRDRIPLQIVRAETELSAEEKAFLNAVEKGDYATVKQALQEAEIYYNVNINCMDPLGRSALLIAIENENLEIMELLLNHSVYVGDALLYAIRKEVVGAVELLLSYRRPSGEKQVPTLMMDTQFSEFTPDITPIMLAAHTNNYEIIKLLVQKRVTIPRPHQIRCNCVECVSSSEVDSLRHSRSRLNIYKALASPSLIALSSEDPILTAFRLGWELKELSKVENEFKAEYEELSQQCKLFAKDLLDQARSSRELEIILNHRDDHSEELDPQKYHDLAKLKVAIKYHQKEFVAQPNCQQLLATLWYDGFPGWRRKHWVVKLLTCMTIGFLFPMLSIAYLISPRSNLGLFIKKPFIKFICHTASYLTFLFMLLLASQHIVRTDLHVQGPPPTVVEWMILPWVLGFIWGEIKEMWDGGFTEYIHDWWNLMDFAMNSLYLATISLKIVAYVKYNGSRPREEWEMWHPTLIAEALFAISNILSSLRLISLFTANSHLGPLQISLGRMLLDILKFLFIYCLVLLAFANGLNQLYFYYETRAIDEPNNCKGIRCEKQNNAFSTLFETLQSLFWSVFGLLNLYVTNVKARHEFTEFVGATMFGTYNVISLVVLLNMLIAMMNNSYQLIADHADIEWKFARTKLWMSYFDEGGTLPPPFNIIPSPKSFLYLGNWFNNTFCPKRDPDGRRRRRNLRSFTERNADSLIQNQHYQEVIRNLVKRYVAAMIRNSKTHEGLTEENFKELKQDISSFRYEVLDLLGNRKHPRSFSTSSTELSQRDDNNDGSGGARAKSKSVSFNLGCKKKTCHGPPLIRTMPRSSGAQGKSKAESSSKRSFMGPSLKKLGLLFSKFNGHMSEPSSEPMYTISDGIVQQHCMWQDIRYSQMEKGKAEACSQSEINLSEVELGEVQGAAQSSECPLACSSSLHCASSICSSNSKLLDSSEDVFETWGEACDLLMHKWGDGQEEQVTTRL
Procedure: HEK-293 cells expressing hTRPC5 were seeded into PDL-coated black-walled 96-well plates, with 2×10^4 cells per well. After 8 hours of culture, the original culture medium was discarded, and 60 µL of 4 µM Fluo-4/AM dye was added immediately. The cells were incubated at 37 °C for 60 minutes, and then rinsed with calcium flow detection buffer 5 times. The cell plates were placed in FLIPR®TETRA (Molecular Devices, Sunnyvale, CA, USA) preheated at 30 °C, excited at a wavelength of 488 nm, and the fluorescence signals were continuously recorded in the range of 515-535 nm with a sampling frequency of 1 s. After recording for 360 seconds, solvent control and test compounds were added, and the fluorescence signal was collected for another 600 seconds. The fluorescence signal of the trajectory diagram is represented by F/F0, wherein F is the fluorescence signal at different time points, and F0 is the basic fluorescence signal, that is, the average value of the fluorescence signal at the first 10 time points. The dose-effect diagram first took F/F0 =1 as the baseline. The area under the curve of the change in fluorescence intensity after adding test compound was calculated. IC50 value was calculated using log[agonist] vs. response - Variable slope, taking into account the area under the curve and the log value of the concentration of the compound.

[2] = Liver microsome stability test, mouse; type: in vitro ADME; settings: Mouse liver microsomes; for MF %: metabolic bioavailability
Excerpt: Calculation of Intrinsic Clearance: Clint = (1000 × slope)/(P); [formula]

[3] = Liver microsome stability test, human; settings: for Stability Evaluation / MF %: Human liver microsomes; for MF %: metabolic bioavailability
[4] = Preliminary pharmacokinetic evaluation, plasma drug concentration after oral administration to mice; type: in vivo, ICR mice; settings: male, ICR, mouse, oral 10 mg/kg, Mean ± SD, N = 3
Procedure: The test compound was prepared according to the following solvent: an aqueous solution of DMSO/Tween 80/0.5% (m/v) CMC-Na at a ratio of 2:2:96 (v/v/v), with a drug concentration of 1 mg/mL. Then, the test compound was gavaged to mice at a dosage of 10 mL/kg, with a dose of 10 mg/kg. Each compound was administered to 3 mice. At 1h and 4h after administration, about 50 µL of blood was collected from the orbital venous plexus of the mouse and placed in a centrifuge tube containing EDTA-K2 anticoagulant.

hTRPC5 [5] = target: T1, hTRPC5; assay: TRPC5 inhibitory activity assay (FLIPR calcium fluorescence, Englerin A stimulation); type: cell-based; settings: Table 1, TRPC5 channels, HEK-293 cells expressing hTRPC5; read-out: FLIPR IC50
Procedure: HEK-293 cells expressing hTRPC3, hTRPC4 or hTRPC5 were seeded into black-bottomed 96-well plates coated with poly-lysine (PDL), with 2×10^4 cells per well. After 8 h of culture, the original culture medium was discarded, and 60 µL of Fluo-4/AM dye with a final concentration of 4 µM was added. The plates were incubated at 37 °C for 60 min, and then rinsed five times with calcium flow detection buffer. […] Then, the agonist Englerin A (EA) (MedChemExpress, Shanghai, China, final concentration of 0.3nM) was added, and the fluorescence signal was collected for 600 seconds. The fluorescence signal of the trajectory diagram is represented by F/F0, wherein F is the fluorescence signal at different time points, and F0 is the basic fluorescence signal, that is, the average value of the fluorescence signal at the first 10 time points. […] The area under the curve of the change in fluorescence intensity after adding EA was calculated. IC50 value was calculated using log[Inhibitor] vs. response - Variable slope, taking into account the area under the curve and the log value of the concentration of the compound.

SMILES	EC50 (hTRPC5 [1])	MF % [3]	Stability Evaluation [3]	other results
Cn1c(=O)n(CCCO)c(=O)c2c1cc(C1CCC(c3ccccc3)CC1)n2Cc1ccc(Cl)cc1 (stereo not shown) [Example E5, 5-(4-chlorobenzyl)-3-(3-hydroxypropyl)-1-methyl-6-(4-phenylcyclohexyl)-1,5-dihydro-2H-pyrrolo[3,2-d]pyrimidine-2,4(3H)-dione]	141 nM			
CC(C)OC1CCC(c2nc3c(c(=O)n(CCCO)c(=O)n3C)n2Cc2ccc(Cl)cc2)CC1 (stereo not shown) [Example E7, 7-(4-chlorobenzyl)-1-(3-hydroxypropyl)-8-(4-isopropoxycyclohexyl)-3-methyl-3,7-dihydro-1H-purine-2,6-dione]	36.1 nM			
CC(C)n1c(=O)n(CCCO)c(=O)c2c1nc(C1CC1C1CC1)n2Cc1ccc(Cl)cc1 (stereo not shown) [Example E14, 8-([1,1'-bis(cyclopropan)]-2-yl)-7-(4-chlorobenzyl)-1-(3-hydroxypropyl)-3-isopropyl-3,7-dihydro-1H-purine-2,6-dione]	105 nM			
Cn1c(=O)n(CCCO)c(=O)c2c1nc(C1(F)CC(c3ccccc3)C1)n2Cc1ccc(Cl)cc1 (stereo not shown) [Example E17, 7-(4-chlorobenzyl)-8-(1-fluoro-3-phenylcyclobutyl)-1-(3-hydroxypropyl)-3-methyl-3,7-dihydro-1H-purine-2,6-dione]	242 nM			
CC(C)OC1CCC(F)(c2nc3c(c(=O)n(CCCO)c(=O)n3C)n2Cc2ccc(Cl)cc2)CC1 (stereo not shown) [Example E19, 7-(4-chlorobenzyl)-8-(1-fluoro-4-isopropoxycyclohexyl)-1-(3-hydroxypropyl)-3-methyl-3,7-dihydro-1H-purine-2,6-dione]	74.5 nM			
COC1(c2nc3c(c(=O)n(CCCO)c(=O)n3C)n2Cc2ccc(Cl)cc2)CCC(C)(C)CC1 [Example E26, 7-(4-chlorobenzyl)-1-(3-hydroxypropyl)-8-(1-methoxy-4,4-dimethylcyclohexyl)-3-methyl-3,7-dihydro-1H-purine-2,6-dione]	100 to 200 nM			
Cn1c(=O)n(CCCO)c(=O)c2c1nc(C1(F)CCC(F)(F)CC1)n2Cc1ccc(Cl)cc1 [Example E38, 7-(4-chlorobenzyl)-1-(3-hydroxypropyl)-3-methyl-8-(1,4,4-trifluorocyclohexyl)-3,7-dihydro-1H-purine-2,6-dione]		50.5%	Medium (30%<MF%<70%, medium metabolic stability)	Stability Evaluation [2]: Medium (30%<MF%<70%, medium metabolic stability); MF % [2]: 42.1%
Cn1c(=O)n(CCCO)c(=O)c2c1nc(C1(F)CCC(F)(F)CC1)n2Cc1ccc(F)cc1 [Example E45, 7-(4-fluorobenzyl)-1-(3-hydroxypropyl)-3-methyl-8-(1,4,4-trifluorocyclohexyl)-3,7-dihydro-1H-purine-2,6-dione]		67.0%	Medium (30%<MF%<70%, medium metabolic stability)	Stability Evaluation [2]: Medium (30%<MF%<70%, medium metabolic stability); MF % [2]: 59.1%
CC(C)n1c(=O)n(CCCO)c(=O)c2c1nc(C1(F)CCC(F)(F)CC1)n2Cc1ccc(F)cc1 [Example E46, 7-(4-fluorobenzyl)-1-(3-hydroxypropyl)-3-isopropyl-8-(1,4,4-trifluorocyclohexyl)-3,7-dihydro-1H-purine-2,6-dione]				concentration at 1 h [4]: 1170 ± 410 ng/mL; concentration at 4 h [4]: 576 ± 117 ng/mL
Cn1c(=O)n(CCCO)c(=O)c2c1nc(C1(F)CCC(F)(F)CC1)n2Cc1cc(F)cc(F)c1 [Example E61, 7-(3,5-difluorobenzyl)-1-(3-hydroxypropyl)-3-methyl-8-(1,4,4-trifluorocyclohexyl)-3,7-dihydro-1H-purine-2,6-dione]		77.4%	Better (MF% >70%, better metabolic stability)	
Cn1c(=O)n(CCCO)c(=O)c2c1nc(C1(F)CCC(F)(F)CC1)n2Cc1ccc(Cl)cc1F [Example E70, 7-(4-chloro-2-fluorobenzyl)-1-(3-hydroxypropyl)-3-methyl-8-(1,4,4-trifluorocyclohexyl)-3,7-dihydro-1H-purine-2,6-dione]				concentration at 1 h [4]: 1260 ± 167 ng/mL; concentration at 4 h [4]: 1200 ± 110 ng/mL
Cn1c(=O)n(CCCO)c(=O)c2c1nc(C1(F)CCC(C(F)(F)F)CC1)n2Cc1ccc(Cl)cc1F (stereo not shown) [Example E71, 7-(4-chloro-2-fluorobenzyl)-8-(1-fluoro-4-(trifluoromethyl)cyclohexyl)-1-(3-hydroxypropyl)-3-methyl-3,7-dihydro-1H-purine-2,6-dione]				IC50 (hTRPC5 [5]): 0.27 nM
Cn1c(=O)n(CCCO)c(=O)c2c1nc(C1(F)CCC(C(F)(F)F)CC1)n2Cc1ccc(C#N)cc1 (stereo not shown) [Example E73, 4-((8-(1-fluoro-4-(trifluoromethyl)cyclohexyl)-1-(3-hydroxypropyl)-3-methyl-2,6-dioxo-1,2,3,6-tetrahydro-7H-purin-7-yl)methyl)benzonitrile]				IC50 (hTRPC5 [5]): 1.88 nM

Second part, led by results:

EC50 (hTRPC5 [1])	MF % [3]	SMILES	Stability Evaluation [3]	other results
	74.4%	Cn1c(=O)n(CCCO)c(=O)c2c1nc(C1(F)CCC(C(F)(F)F)CC1)n2Cc1ccccc1 (stereo not shown) [Example E63, 7-benzyl-8-(1-fluoro-4-(trifluoromethyl)cyclohexyl)-1-(3-hydroxypropyl)-3-methyl-3,7-dihydro-1H-purine-2,6-dione]	Better (MF% >70%, better metabolic stability)	concentration at 1 h [4]: 2800 ± 860 ng/mL; concentration at 4 h [4]: 2060 ± 755 ng/mL; IC50 (hTRPC5 [5]): 0.86 nM; half-life at 1 µM ([3]; human, liver microsomes, pH 7.4): 5.18 h
	72.5%	Cn1c(=O)n(CCCO)c(=O)c2c1nc(C1(F)CCC(F)(F)CC1)n2Cc1ccc(F)cc1F [Example E64, 7-(2,4-difluorobenzyl)-1-(3-hydroxypropyl)-3-methyl-8-(1,4,4-trifluorocyclohexyl)-3,7-dihydro-1H-purine-2,6-dione]	Better (MF% >70%, better metabolic stability)	Stability Evaluation [2]: Medium (30%<MF%<70%, medium metabolic stability); MF % [2]: 56.4%
	66.7%	Cn1c(=O)n(CCCO)c(=O)c2c1nc(C1(F)CCC(F)(F)CC1)n2Cc1ccc(C#N)cc1 [Example E72, 4-((1-(3-hydroxypropyl)-3-methyl-2,6-dioxo-8-(1,4,4-trifluorocyclohexyl)-1,2,3,6-tetrahydro-7H-purin-7-yl)methyl)benzonitrile]	Medium (30%<MF%<70%, medium metabolic stability)	
